{
  "source": "patent US6552007B2",
  "about": "“Use of somatostatin analogs for the delivery of anti-tumor drugs to tumor cells” (priority 2000, dated 2003)",
  "key": {"[1]": {"biological_target": "human somatostatin receptors subtype 4 (Homo sapiens, UniProt P31391)", "sequence (P31391 whole entry)": "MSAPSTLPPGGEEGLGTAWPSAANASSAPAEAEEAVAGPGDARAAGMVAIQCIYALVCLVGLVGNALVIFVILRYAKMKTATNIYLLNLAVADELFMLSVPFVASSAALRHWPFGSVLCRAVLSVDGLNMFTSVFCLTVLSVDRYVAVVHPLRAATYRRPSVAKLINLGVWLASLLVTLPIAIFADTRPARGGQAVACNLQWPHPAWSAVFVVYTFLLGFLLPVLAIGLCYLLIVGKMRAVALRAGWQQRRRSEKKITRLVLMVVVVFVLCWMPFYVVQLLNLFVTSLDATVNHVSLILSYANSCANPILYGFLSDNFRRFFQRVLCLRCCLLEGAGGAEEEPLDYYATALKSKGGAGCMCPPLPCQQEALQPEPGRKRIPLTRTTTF", "conditions": "cited from earlier work"}, "CHO cells [2]": {"tested_on": "CHO cells", "assay": "Cell death of CHO cells after 1 day treatment", "format": "cell-based", "conditions": "10^−5 M"}, "MCF-7 cells [3]": {"tested_on": "MCF-7 cells", "assay": "Cell death of MCF-7 cells after 1 day treatment", "format": "cell-based", "conditions": "10^−5 M"}, "[4]": {"biological_target": "human somatostatin receptors subtype 2 (Homo sapiens, UniProt P30874)", "sequence (P30874 whole entry)": "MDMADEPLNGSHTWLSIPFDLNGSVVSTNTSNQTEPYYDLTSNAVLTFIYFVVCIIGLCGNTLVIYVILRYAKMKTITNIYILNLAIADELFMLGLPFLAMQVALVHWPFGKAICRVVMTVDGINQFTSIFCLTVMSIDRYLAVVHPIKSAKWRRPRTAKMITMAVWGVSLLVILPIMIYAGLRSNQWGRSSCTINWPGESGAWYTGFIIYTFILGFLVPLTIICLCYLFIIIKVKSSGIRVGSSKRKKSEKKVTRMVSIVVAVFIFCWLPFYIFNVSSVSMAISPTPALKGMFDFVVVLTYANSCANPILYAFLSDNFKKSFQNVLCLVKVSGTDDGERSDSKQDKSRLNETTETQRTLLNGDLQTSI", "conditions": "cited from earlier work"}, "MCF-7 cells [5]": {"tested_on": "MCF-7 cells", "conditions": "paclitaxel at 10^−6 M, 1 day"}, "MCF-7 cells [6]": {"tested_on": "MCF-7 cells", "assay": "Fluorescence microscopy binding of fluorescein-labeled octreotide to MCF-7 cells", "conditions": "30 min, 4° C.; for binding (fluorescence labeling) to MCF-7 cells: 100 μg in 1 ml buffer", "quoted_text": "Panels B, D, F and H which correspond to panels A, C, E and G, respectively, show the fluorescence labeled octreotide binding to the MCF-7 cells and the CHO. The MCF-7 cells and CHO cells are inclubated with 100 μg of fluorescein labeled octerotide in 1 ml of a buffer for 30 minutes at 4 ° C., after which the cells are washed with PBS, fixed with 4% paraformaldehye and subject to fluorescence microscopy."}, "CHO cells [7]": {"tested_on": "CHO cells", "conditions": "30 min, 4° C.; for binding (fluorescence labeling) to CHO cells: 100 μg in 1 ml buffer; for binding to CHO cells at higher concentration of labeled octreotide: higher concentration (500 μg/ml)", "experimental": "FIG. 2 depicts fluorescence micrographs of MCF-7 and CHO cells after incubation with fluorescin-octreotide at 4° C. for 30 min. […] Cell morphology was shown at A, C, E, and G. Bar=20 μm;\nThe MCF-7 cells and CHO cells are inclubated with 100 μg of fluorescein labeled octerotide in 1 ml of a buffer for 30 minutes at 4 ° C., after which the cells are washed with PBS, fixed with 4% paraformaldehye and subject to fluorescence microscopy."}, "MCF-7 cells [8]": {"tested_on": "MCF-7 cells", "assay": "Internalization of labeled octreotide by MCF-7 cells (somatostatin receptor-mediated endocytosis)", "format": "cell-based", "conditions": "one hour incubation, 100 μg/ml, 37° C."}, "[9]": {"conditions": "listed as fluorescin-octreotide"}},
  "note": "Read-outs that look alike come from different tables or passages of the source. Where a SMILES comes first, the peptide text is derived from it. Bridges are numbered along the chain shown (N, C = ends). [ ]: non-standard residue; d: D form.",
  "data": [
    {"compound": "CC(C)[C@@H]1NC(=O)[C@H](CCCCN)NC(=O)[C@@H](Cc2c[nH]c3ccccc23)NC(=O)[C@H](Cc2ccc(O)cc2)NC(=O)[C@@H](NC(=O)[C@H](N)Cc2ccccc2)CSSC[C@@H](C(=O)N[C@@H](Cc2c[nH]c3ccccc23)C(N)=O)NC1=O", "note": "[vapreotide, D-Phe-c[Cys-Tyr-D-Trp-Lys-Val-Cys]-Trp-NH2] (H-[dF]CY[dW]KVCW-NH2; disulfide 2-7)", "values": [
      {"measurement": "affinity to human somatostatin receptor subtype 4", "setting": "[1]", "value": "high affinities"}
    ]},
    {"compound": "CC(=O)O[C@H]1C(=O)[C@@]2(C)[C@H]([C@H](OC(=O)c3ccccc3)[C@]3(O)C[C@H](OC(=O)[C@H](O)[C@@H](NC(=O)c4ccccc4)c4ccccc4)C(C)=C1C3(C)C)[C@]1(OC(C)=O)CO[C@@H]1C[C@@H]2O", "note": "[paclitaxel, reference compound]", "values": [
      {"measurement": "death of CHO cells", "setting": "CHO cells [2]", "value": "causes death of both MCF-7 cells and CHO cells"},
      {"measurement": "death of MCF-7 cells", "setting": "MCF-7 cells [3]", "value": "causes death of both MCF-7 cells and CHO cells"}
    ]},
    {"compound": "C[C@@H](O)[C@@H]1NC(=O)[C@H](CCCCN)NC(=O)[C@@H](Cc2c[nH]c3ccccc23)NC(=O)[C@H](Cc2ccccc2)NC(=O)[C@@H](NC(=O)[C@H](N)Cc2ccccc2)CSSC[C@@H](C(=O)N[C@H](CO)[C@@H](C)O)NC1=O", "note": "[octreotide, D-Phe-c[Cys-Phe-D-Trp-Lys-Thr-Cys]-Thr(ol)]", "values": [
      {"measurement": "affinity to human somatostatin receptor subtype 2", "setting": "[4]", "value": "high affinities"}
    ]},
    {"compound": "Paclitaxel-Glutary 1-Octreotide [octreotide conjugated paclitaxel]", "values": [
      {"measurement": "death of CHO cells", "setting": "CHO cells [2]", "value": "not of the CHO cells"},
      {"measurement": "anti-tumor activity through disrupting microtubule formation, compared with non-conjugated paclitaxel", "setting": "MCF-7 cells [5]", "value": "same anti- tumor activity through disrupting microtubule formation"},
      {"measurement": "anti-tumor activity through disrupting microtubule formation, compared with non-conjugated paclitaxel", "setting": "MCF-7 cells [5]; listed as octreotide-conjugated taxol", "value": "virtually retains the cellular functions of taxol"},
      {"measurement": "cell specificity (MCF-7 versus CHO cells)", "setting": "MCF-7 cells [3]", "value": "specific to MCF-7 cells"},
      {"measurement": "death of MCF-7 cells", "setting": "MCF-7 cells [3]", "value": "induces only the death of the MCF-7 cells"}
    ]},
    {"compound": "Fluorescein-Octreotide [labeled octreotide]", "values": [
      {"measurement": "binding (fluorescence labeling) to MCF-7 cells", "setting": "MCF-7 cells [6]", "value": "binds to the MCF-7 cells"},
      {"measurement": "binding (fluorescence labeling) to MCF-7 cells", "setting": "MCF-7 cells [6]; [9]", "value": "labeling is confined to the MCF-7 cell surface"},
      {"measurement": "binding to MCF-7 cells in the presence of excessive non-labeled octreotide", "setting": "MCF-7 cells [6]; excessive amount (1,000 fold) of nonfluorescent octreotide", "value": "disappears"},
      {"measurement": "binding (fluorescence labeling) to CHO cells", "setting": "CHO cells [7]", "value": "not to the CHO cells"},
      {"measurement": "binding (fluorescence labeling) to CHO cells", "setting": "CHO cells [7]; [9]", "value": "No labeling can be seen among the CHO cells"},
      {"measurement": "binding to CHO cells at higher concentration of labeled octreotide", "setting": "CHO cells [7]", "value": "does not bind to the CHO cells"},
      {"measurement": "binding to CHO cells at higher concentration of labeled octreotide", "setting": "CHO cells [7]; [9]", "value": "No labeling"},
      {"measurement": "internalization into MCF-7 cytosol", "setting": "MCF-7 cells [8]", "value": "internalized into the MCF-7 cytosol"},
      {"measurement": "internalization into MCF-7 cytosol", "setting": "MCF-7 cells [8]; [9]", "value": "internalization"}
    ]}
  ]
}
